In ChEMBL document CHEMBL1129095, “Design and synthesis of new antagonist peptides for platelet GPIIb/IIIa receptor as anti-thrombotic agents” (Bioorg Med Chem Lett, 1996):
Non-standard residues stand in square brackets, D forms with d. Residues, ends and D or L forms follow the SMILES beside them. *: point of attachment. Butyryl(4-indol-3-yl) = O=C(CCCc1c[nH]c2ccccc12)*; Dihydroorotyl(S) = O=C1C[C@@H](C(=O)*)NC(=O)N1; Phthalimidoacetyl = O=C1c2ccccc2C(=O)N1CC(=O)*; X4 = COc1ccc2[nH]c(C)c(CC(=O)*)c2c1; Hyp = O=C(O)[C@@H]1C[C@@H](O)CN1; X8 = COc1ccc2[nH]cc(CC(=O)*)c2c1; X7 = Cc1[nH]c2ccccc2c1CC(=O)*; pGlu = O=C1CC[C@@H](C(=O)O)N1; X2 = O=C(Cc1c[nH]c2ccccc12)*; NMePro = CN1CCC[C@H]1C(=O)*; X6 = O=C1NC(=O)C(CC(=O)*)N1; X1 = O=C1N[C@H](C(=O)*)CS1; Pip = O=C(O)[C@@H]1CCCCN1; X3 = O=C(c1cc(O)nc(O)n1)*; Thz = O=C(O)[C@@H]1CSCN1; Aze = O=C(O)[C@@H]1CCN1; X5 = O=C([C@@H]1CCCO1)*; PhAc = O=C(Cc1ccccc1)*; Bz = O=C(c1ccccc1)*

Assays:
[1] = organism: Homo sapiens; experiment: Inhibition of collagen-induced human platelet aggregation.; type: functional
[2] = T1/2 was evaluated in human plasma; type: ADME, cell-free

Molecule	IC50 [1]	half-life [2]
COc1ccc2[nH]c(C)c(CC(=O)N[C@@H](CO)C(=O)N[C@@H](CCCN=C(N)N)C(=O)NCC(=O)N[C@@H](CC(=O)O)C(=O)N[C@@H](Cc3c[nH]c4ccccc34)C(=O)O)c2c1 (X4-SRGDW-OH)	25 µM	–
N=C(N)NCCC[C@H](NC(=O)[C@H](CO)NC(=O)[C@@H]1CCCCN1)C(=O)NCC(=O)N[C@@H](CC(=O)O)C(=O)N[C@@H](Cc1c[nH]c2ccccc12)C(=O)O (H-[Pip]SRGDW-OH)	11 µM	–
N=C(N)NCCC[C@H](NC(=O)[C@H](CO)NC(=O)[C@@H]1CCCN1)C(=O)NCC(=O)N[C@@H](CC(=O)O)C(=O)N[C@@H](Cc1c[nH]c2ccccc12)C(=O)O	0.87 µM	–
Ac-SRGDW-NH2	74 µM	–
COc1ccc2[nH]cc(CC(=O)N[C@@H](CO)C(=O)N[C@@H](CCCN=C(N)N)C(=O)NCC(=O)N[C@@H](CC(=O)O)C(=O)N[C@@H](Cc3c[nH]c4ccccc34)C(=O)O)c2c1 (X8-SRGDW-OH)	11 µM	–
N=C(N)NCCC[C@H](NC(=O)[C@H](CO)NC(=O)[C@@H]1CSCN1)C(=O)NCC(=O)N[C@@H](CC(=O)O)C(=O)N[C@@H](Cc1c[nH]c2ccccc12)C(=O)O (H-[Thz]SRGDW-OH)	27 µM	–
N=C(N)NCCC[C@H](NC(=O)[C@H](CO)NC(=O)[C@@H]1CC(=O)NC(=O)N1)C(=O)NCC(=O)N[C@@H](CC(=O)O)C(=O)N[C@@H](Cc1c[nH]c2ccccc12)C(=O)O ({Dihydroorotyl(S)}-SRGDW-OH)	8.7 µM	–
N=C(N)NCCC[C@H](NC(=O)[C@H](CO)NC(=O)CN1C(=O)c2ccccc2C1=O)C(=O)NCC(=O)N[C@@H](CC(=O)O)C(=O)N[C@@H](Cc1c[nH]c2ccccc12)C(N)=O (Phthalimidoacetyl-SRGDW-NH2)	21 µM	–
N=C(N)NCCC[C@H](NC(=O)[C@H](CO)NC(=O)[C@H]1CCCN1)C(=O)NCC(=O)N[C@@H](CC(=O)O)C(=O)N[C@@H](Cc1c[nH]c2ccccc12)C(=O)O	33 µM	–
N=C(N)NCCC[C@H](NC(=O)[C@H](CO)NC(=O)[C@@H]1CCN1)C(=O)NCC(=O)N[C@@H](CC(=O)O)C(=O)N[C@@H](Cc1c[nH]c2ccccc12)C(=O)O (H-[Aze]SRGDW-OH)	1.3 µM	–
N=C(N)NCCC[C@H](NC(=O)[C@H](CO)NC(=O)[C@@H]1CSC(=O)N1)C(=O)NCC(=O)N[C@@H](CC(=O)O)C(=O)N[C@@H](Cc1c[nH]c2ccccc12)C(=O)O (X1-SRGDW-OH)	12 µM	–
H-WSRGDW-OH	6.8 µM	11 min
N=C(N)NCCC[C@H](NC(=O)[C@H](CO)NC(=O)[C@@H]1CCCO1)C(=O)NCC(=O)N[C@@H](CC(=O)O)C(=O)N[C@@H](Cc1c[nH]c2ccccc12)C(=O)O (X5-SRGDW-OH)	21 µM	–
Cc1[nH]c2ccccc2c1CC(=O)N[C@@H](CO)C(=O)N[C@@H](CCCN=C(N)N)C(=O)NCC(=O)N[C@@H](CC(=O)O)C(=O)N[C@@H](Cc1c[nH]c2ccccc12)C(=O)O (X7-SRGDW-OH)	22 µM	–
NC(=O)[C@H](Cc1ccccc1)NC(=O)[C@H](CC(=O)O)NC(=O)CNC(=O)[C@@H](N)CCCN=C(N)N (H-RGDF-NH2)	50 µM	–
Ac-PSRGDW-OH	50 µM	–
H-FSRGDW-OH	23 µM	–
N=C(N)NCCC[C@H](NC(=O)[C@H](CO)NC(=O)[C@@H]1C[C@@H](O)CN1)C(=O)NCC(=O)N[C@@H](CC(=O)O)C(=O)N[C@@H](Cc1c[nH]c2ccccc12)C(=O)O (H-[Hyp]SRGDW-OH)	28 µM	–
N=C(N)NCCC[C@H](NC(=O)[C@H](CO)NC(=O)[C@@H]1CCC(=O)N1)C(=O)NCC(=O)N[C@@H](CC(=O)O)C(=O)N[C@@H](Cc1c[nH]c2ccccc12)C(=O)O ([pGlu]SRGDW-OH)	5.6 µM	–
CN1CCC[C@H]1C(=O)N[C@@H](CO)C(=O)N[C@@H](CCCN=C(N)N)C(=O)NCC(=O)N[C@@H](CC(=O)O)C(=O)N[C@@H](Cc1c[nH]c2ccccc12)C(=O)O (NMePro-SRGDW-OH)	20 µM	–
N=C(N)NCCC[C@H](NC(=O)[C@H](CO)NC(=O)c1cc(O)nc(O)n1)C(=O)NCC(=O)N[C@@H](CC(=O)O)C(=O)N[C@@H](Cc1c[nH]c2ccccc12)C(=O)O (X3-SRGDW-OH)	4 µM	–
N=C(N)NCCC[C@H](NC(=O)[C@H](CO)NC(=O)CC1NC(=O)NC1=O)C(=O)NCC(=O)N[C@@H](CC(=O)O)C(=O)N[C@@H](Cc1c[nH]c2ccccc12)C(=O)O (some centres not stated) (X6-SRGDW-OH)	6.9 µM	–
N=C(N)NCCC[C@H](NC(=O)[C@H](CO)NC(=O)Cc1ccccc1)C(=O)NCC(=O)N[C@@H](CC(=O)O)C(=O)N[C@@H](Cc1c[nH]c2ccccc12)C(N)=O (PhAc-SRGDW-NH2)	59 µM	–
N=C(N)NCCC[C@H](NC(=O)[C@H](CO)NC(=O)c1ccccc1)C(=O)NCC(=O)N[C@@H](CC(=O)O)C(=O)N[C@@H](Cc1c[nH]c2ccccc12)C(N)=O (Bz-SRGDW-NH2)	34 µM	–
N=C(N)NCCC[C@H](NC(=O)[C@H](CO)NC(=O)CCCc1c[nH]c2ccccc12)C(=O)NCC(=O)N[C@@H](CC(=O)O)C(=O)N[C@@H](Cc1c[nH]c2ccccc12)C(=O)O ({Butyryl(4-indol-3-yl)}-SRGDW-OH)	21 µM	–
N=C(N)NCCC[C@H](NC(=O)[C@H](CO)NC(=O)Cc1c[nH]c2ccccc12)C(=O)NCC(=O)N[C@@H](CC(=O)O)C(=O)N[C@@H](Cc1c[nH]c2ccccc12)C(=O)O (X2-SRGDW-OH)	21 µM	–
